These results are taken from patent US5229381A, “Substituted azetidinones as anti-inflammatory and antidegenerative agents” (Merck & Co., Inc., priority 1991, dated 1993).

Each structure is given as a SMILES string.

In the first assay the target is T1, human polymorphonuclear leukocyte elastase (Homo sapiens, UniProt P08246).
T1 construct: Crude extract of human polymorphonuclear leukocytes (PMN) containing elastase activity; endogenous in cells; host or cells: human polymorphonuclear leukocytes (crude extract)
T1 sequence (P08246 30-247 limits assumed): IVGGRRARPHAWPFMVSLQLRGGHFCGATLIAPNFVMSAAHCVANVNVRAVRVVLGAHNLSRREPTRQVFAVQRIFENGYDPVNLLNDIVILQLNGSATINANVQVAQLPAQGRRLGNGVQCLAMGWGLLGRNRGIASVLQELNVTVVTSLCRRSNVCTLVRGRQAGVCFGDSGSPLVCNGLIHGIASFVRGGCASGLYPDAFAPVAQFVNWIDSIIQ
The assay can be described thus: Inhibition of human polymorphonuclear leukocyte (granulocyte) elastase via hydrolysis of Boc-AAPAN or Boc-AAPVN. To be noted: Table I; 2 min after time zero; crude PMN extract, pH 7.5. The assay is classed as biochemical.
Protocol: Enzyme Assays for the Inhibition of Human Polymorphonuclear Leukocyte Elastase Via Hydrolysis of N-t-Boc-alanyl-alanyl-prolylalanine-p-nitroanilide (Boc-AAPAN) or N-t-Boc-alanyl-prolylvaline-p-nitroanilide (Boc-AAPVN) Reagent:
0.05M TES (N-tris[hydroxymethyl]methyl-2-amino-ethanesulfonic acid) Buffer, pH 7.5.
0.2 mM Boc-AAPAN or Boc-AAPVN.
To prepare substrate, the solid was first dissolved in 10.0 ml DMSO. Buffer at pH 7.5 was then added to a final volume of 100 ml.
Crude extract of human polymorphonuclear leukocytes (PMN) containing elastase activity.
Inhibitors (azetidinones) to be tested dissolved in DMSO just before use.
To 1.0 ml of 0.2 mM Boc-AAPAN in a cuvette, 0.01-0.1 ml of DMSO with or without inhibitor was added. After mixing, a measurement was taken at 410 mμ to detect any spontaneous hydrolysis due to presence of test compound. 0.05 Milliliters of PMN extract was then added and the ΔOD/min at 410 mμ was measured and recorded. Beckman model 35 spectrophotometer was used.
Results were also expressed as Ki, the micromolar concentration of the inhibitor (μM) giving 50% of the control enzyme activity; or as ^k obs/I which is the second order rate constant in per mole per second for inactivation of the enzyme.
The elastase activity in the crude PMN extract may vary from one preparation to another. A control of each new batch is run, and the volume added in the assay procedure is adjusted according to activity.
Turning to `CCCC1C(=O)N(C(C)=O)C1OC(C)=O` (centres unmarked) [Table I: H; n-propyl; OCOCH3; COCH3, 1-acetyl-4-acetoxy-3-n-propylazetidin-2-one], the “ID50, effective dosage for 50% inhibition of the enzyme activity two minutes after time zero” value was 10 µg/mL.
Same read-out and setting: for `CCC1C(=O)N(C(C)=O)C1OC(C)=O` (centres unmarked) [Table I: H; C2 H5; OCOCH3; COCH3] the value was 100 µg/mL.

Still in this assay, the particulars now being: Table I; read-out: Ki, concentration of the inhibitor giving 50% of the control enzyme activity.
With `CCO[C@@H]1[C@@H](CC)C(=O)N1C(C)=O` (relative stereo) [Table I: H; C2 H5 (trans); OC2 H5; COCH3], the Ki turned out to be 11.9 µM.
Regarding `CC[C@H]1C(=O)N(C(=O)c2ccccc2)[C@H]1OC(C)=O` (relative stereo) [Table I: H; C2 H5 (cis); OCOCH3; COPh], the Ki was determined as 0.14 µM.
Same read-out and setting: as for `CC[C@H]1C(=O)N(C(=O)NC)[C@@H]1Oc1ccc(C(=O)O)cc1` (relative stereo), the figure is 16.5 µM; as for `CCC1C(=O)N(C(=O)CCC(=O)O)C1OC(C)=O` (centres unmarked), 1.43 µM; as for `CCC1C(=O)N(C(C)=O)C1OC(C)=O` (centres unmarked) [Table I: H; C2 H5; OCOCH3; COCH3], 0.36 µM.

The assay is the same for the next values; noted with them: pH 7.5, Table II, (per mole per second); read-out: kobs/I, second order rate constant of inactivation of the enzyme.
Consider `CCC1(CC)C(=O)N(C(=O)NCc2cccs2)C1Oc1ccc(C(=O)O)cc1` (centres unmarked), for which the kinact/KI turned out to be 4920 M⁻¹ s⁻¹.
As to `CCC1(CC)C(=O)N(C(=O)NCc2ccc(Cl)cc2)C1Oc1ccc(C(=O)O)cc1` (centres unmarked), the kinact/KI was 3420 M⁻¹ s⁻¹.
Take `CCC1C(=O)N(C(=O)Nc2ccc(C(=O)O)cc2)C1Oc1ccc(C(=O)O)cc1` (centres unmarked): the kinact/KI was determined as 13600 M⁻¹ s⁻¹.
Take `CCC1(CC)C(=O)N(C(=O)NCc2ccc3cc4ccccc4cc3c2)C1Oc1ccc(C(=O)O)cc1` (centres unmarked): the kinact/KI came to 36200 M⁻¹ s⁻¹.
As to `CCC1(CC)C(=O)N(C(=O)NCc2ccccc2)C1Oc1ccccc1CO` (centres unmarked), the kinact/KI was determined as 2960 M⁻¹ s⁻¹.
`CCC1C(=O)N(C(=O)NCc2ccccc2)C1c1ccc(C(=O)O)cc1` (centres unmarked) [Table II: C2 H5; H; Ph-4-COOH; CH2 Ph]: the kinact/KI came to 900 M⁻¹ s⁻¹.
On to `CCC1(C)C(=O)N(C(=O)NCC(C)c2ccccc2)C1Oc1ccc(C(=O)O)cc1` (centres unmarked), for which the kinact/KI came out at 2550 M⁻¹ s⁻¹.
As to `CCC1(CC)C(=O)N(C(=O)NCCCCc2ccccc2)C1Oc1ccc(C(=O)O)cc1` (centres unmarked), the kinact/KI turned out to be 10900 M⁻¹ s⁻¹.
For the molecule `CCCC1(CC)C(=O)N(C(=O)NCc2ccccc2)C1Oc1ccc(C(=O)O)cc1` (centres unmarked), the kinact/KI was found to be 3280 M⁻¹ s⁻¹.
In the case of `CCCC1C(=O)N(C(=O)NCc2ccccc2)C1Oc1ccc(C(=O)O)cc1` (centres unmarked) [Table II: C3 H7; H; O-(4-COOHPh); CH2 Ph], the kinact/KI was 5000 M⁻¹ s⁻¹.
As to `CCCCCCCCCNC(=O)N1C(=O)C(CC)(CC)C1Oc1ccc(C(=O)O)cc1` (centres unmarked), the kinact/KI was found to be 8300 M⁻¹ s⁻¹.
On to `CCC1(CC)C(=O)N(C(=O)NCc2ccccc2)C1Oc1ccc2cc(C(=O)O)ccc2c1` (centres unmarked), for which the kinact/KI turned out to be 5560 M⁻¹ s⁻¹.
For the molecule `CCC1(CC)C(=O)N(C(=O)NCc2ccccc2)C1Oc1ccc(CC(=O)O)cc1` (centres unmarked), the kinact/KI worked out at 3180 M⁻¹ s⁻¹.
With `CCCC1(CC)C(=O)N(C(=O)NC(CC)c2ccccc2)C1Oc1ccc(C(=O)CCC(=O)O)cc1` (centres unmarked), the kinact/KI came out at 87000 M⁻¹ s⁻¹.
For `CCC1(CC)C(=O)N(C(=O)NCc2ccccc2)C1Oc1cccc(C(=O)O)c1` (centres unmarked), the kinact/KI was 1760 M⁻¹ s⁻¹.
Regarding `CCC1(CC)C(=O)N(C(=O)NCc2ccccc2)C1n1ccnc1` (centres unmarked), the kinact/KI stood at 200 M⁻¹ s⁻¹.
`CCCC(NC(=O)N1C(=O)C(CC)(COC)C1Oc1ccc(C(=O)O)cc1)c1ccccc1` (centres unmarked): the kinact/KI stood at 75000 M⁻¹ s⁻¹.
The same measure, in the same setting: for `CCC1(CC)C(=O)N(C(=O)NCc2ccc(N(C)C)cc2)C1Oc1ccc(C(=O)O)cc1` (centres unmarked) the value was 9980 M⁻¹ s⁻¹; for `CCC1(CC)C(=O)N(C(=O)NCc2cc3ccccc3o2)C1Oc1ccc(C(=O)O)cc1` (centres unmarked), 13200 M⁻¹ s⁻¹.
As for `CCCC1(CCC)C(=O)N(C(=O)NCc2ccccc2)C1Oc1ccc(C(=O)O)cc1` (centres unmarked), the kinact/KI turned out to be 2500 M⁻¹ s⁻¹.
In the case of `CCC1(COC)C(=O)N(C(=O)NCc2ccc3c(c2)OCO3)C1Oc1ccc(C(=O)O)cc1` (centres unmarked), the kinact/KI amounted to 17000 M⁻¹ s⁻¹.
With `CCC1(COC)C(=O)N(C(=O)NCc2ccc3ccccc3c2)C1Oc1ccc(C(=O)O)cc1` (centres unmarked), the kinact/KI amounted to 50000 M⁻¹ s⁻¹.
Still for that read-out and setting: for `CCC1(CC)C(=O)N(C(=O)NCc2ccc(OC)cc2)C1Oc1ccc(C(=O)O)cc1` (centres unmarked) the value was 5160 M⁻¹ s⁻¹; for `CCC(NC(=O)N1C(=O)C(C)(CC)C1Oc1ccc(C(=O)O)cc1)c1ccsc1` (centres unmarked), 78800 M⁻¹ s⁻¹; for `CCC1(CC)C(=O)N(C(=O)NCc2ccc(C)cc2)C1Oc1ccc(C(=O)O)cc1` (centres unmarked), 3960 M⁻¹ s⁻¹.
Still for that read-out and setting: as for `CCC1(CC)C(=O)N(C(=O)NCc2ccc(-c3ccccc3)cc2)C1Oc1ccc(C(=O)O)cc1` (centres unmarked), the figure is 37000 M⁻¹ s⁻¹.

Staying with this assay, now noted: pH 7.5, Table III, (per mole per second); read-out: kobs/I, second order rate constant of inactivation of the enzyme.
For `CCC1(CC)C(=O)N(C(=O)NCc2ccc(-c3ccccc3)cc2)C1n1ccnc1` (centres unmarked) [Table III: 1-imidazole; CH2 Ph-4-Ph], the kinact/KI turned out to be 461 M⁻¹ s⁻¹.
Regarding `CCC1(CC)C(=O)N(C(=O)NCc2ccc3c(c2)CCCC3)C1Oc1ccc(C(=O)O)cc1` (centres unmarked), the kinact/KI was 62900 M⁻¹ s⁻¹.
On to `CCC1(CC)C(=O)N(C(=O)NCc2ccc(-c3ccccc3)cc2)C1Oc1ccc(CC(=O)O)cc1` (centres unmarked), for which the kinact/KI was 28900 M⁻¹ s⁻¹.
Still for that read-out and setting: for `CCC1(CC)C(=O)N(C(=O)NCc2ccccc2)C1n1cnnn1` (centres unmarked) [Table III: 1-tetrazolyl; CH2 Ph] the value was 948 M⁻¹ s⁻¹; for `CCC1(CC)C(=O)N(C(=O)NCc2ccc(C(=O)N3CCOCC3)cc2)C1Oc1ccc(C(=O)O)cc1` (centres unmarked) [Table III: O-(4-COOHPh); drawing 43], 2040 M⁻¹ s⁻¹.
Consider `CCC1(CC)C(=O)N(C(=O)NCc2cccc(C)c2)C1Oc1ccc(C(=O)O)cc1` (centres unmarked) [Table III: O-(4-COOHPh); CH2 Ph(3-CH3)], for which the kinact/KI is 6930 M⁻¹ s⁻¹.
Turning to `CCC1(CC)C(=O)N(C(=O)NCC2CCC3CCCCC3C2)C1Oc1ccc(C(=O)O)cc1` (centres unmarked) [Table III: O-(4-COOHPh); drawing 41], the kinact/KI was found to be 4160 M⁻¹ s⁻¹.
Take `CCC1(CC)C(=O)N(C(=O)NCc2ccc(S(C)(=O)=O)cc2)C1Oc1ccc(C(=O)O)cc1` (centres unmarked): the kinact/KI was found to be 3350 M⁻¹ s⁻¹.
Turning to `CCC1(CC)C(=O)N(C(=O)NCc2ccccc2)C1Oc1ccc(C(NC(C)=O)C(=O)O)cc1` (centres unmarked) [Table III: O-(4-CH(COOH)NHAcPh); CH2 Ph], the kinact/KI worked out at 1680 M⁻¹ s⁻¹.
On the same count and under the same terms, as for `CCC1(CC)C(=O)N(C(=O)NCc2ccccc2)C1OCC(O)CO` (centres unmarked) [Table III: O-glyceryl; CH2 Ph], the figure is 818 M⁻¹ s⁻¹; as for `CCC1(CC)C(=O)N(C(=O)NCc2ccccc2)C1Oc1ccccc1CCCN(C)C` (centres unmarked) [Table III: O-(2-(CH2)3 NMe2Ph); CH2 Ph], 629 M⁻¹ s⁻¹.
As for `CCC1(CC)C(=O)N(C(=O)NCc2ccc(-c3ccccc3)cc2)C1OCC(N)=O` (centres unmarked) [Table III: OCH2 CONH2; CH2Ph-4-Ph], the kinact/KI came to 51800 M⁻¹ s⁻¹.
Take `CCC1(CC)C(=O)N(C(=O)NCc2ccccc2O)C1Oc1ccc(C(=O)O)cc1` (centres unmarked) [Table III: O-(4-COOHPh); CH2 Ph(2-OH)]: the kinact/KI is 1460 M⁻¹ s⁻¹.
For the molecule `CCC1(CC)C(=O)N(C(=O)NCc2ccc(C(C)C)cc2)C1Oc1ccc(C(=O)O)cc1` (centres unmarked) [Table III: O-(4-COOHPh); CH2 Ph(4-i-Pr)], the kinact/KI worked out at 18800 M⁻¹ s⁻¹.

The assay is the same for the next values; noted with them: pH 7.5, Table IV, (per mole per second); read-out: kobs/I, second order rate constant of inactivation of the enzyme.
Regarding `CCC1C(=O)N(C(=O)N2CCc3ccccc3C2)C1Oc1ccc(C(=O)O)cc1` (centres unmarked) [Table IV: C2 H5; H; O-(4-COOHPh); drawing 46], the kinact/KI was found to be 10100 M⁻¹ s⁻¹.
On the same count and under the same terms, as for `CCOC(=O)c1ccc(COC(=O)N2C(=O)C(CC)(CC)C2Oc2ccc(C(=O)O)cc2)cc1` (centres unmarked), the figure is 14300 M⁻¹ s⁻¹; as for `CCOC(=O)c1ccc(COC(=O)N2C(=O)C(CC)C2Oc2ccc(C(=O)O)cc2)cc1` (centres unmarked), 227000 M⁻¹ s⁻¹.

The same assay, now with this note: pH 7.5, Table VI, (per mole per second); read-out: kobs/I, second order rate constant of inactivation of the enzyme.
Regarding `CCC[C@@H](NC(=O)N1C(=O)C(CC)(CC)[C@@H]1Oc1ccc(CC(=O)O)cc1)c1ccccc1` [Table VI: 4-CH2 COOH; nPr; H, (4S)-3,3-diethyl-1-[(R)-α-n-propylbenzylamino-carbonyl]-4-[(4-carboxymethyl)phenoxy]azetidin-2-one], the kinact/KI came to 188000 M⁻¹ s⁻¹.
Turning to `CCC1(CC)C(=O)N(C(=O)N[C@H](C)c2ccccc2)[C@H]1Oc1cccc(CC(=O)O)c1` [Table VI: 3-CH2 COOH; Me; H], the kinact/KI was 5880 M⁻¹ s⁻¹.
The same measure, in the same setting: for `CC[C@@H](NC(=O)N1C(=O)C(CC)(CC)[C@@H]1Oc1cc(C)c(C(=O)O)c(C)c1)c1ccccc1` [Table VI: 3,5-Me2-4-COOH; Et; H] the value was 25000 M⁻¹ s⁻¹.
Turning to `CCC1(CC)C(=O)N(C(=O)N[C@H](C)c2ccccc2)[C@H]1Oc1ccc(C=CC(=O)O)cc1` [Table VI: 4-CHCHCOOH; Me; H], the kinact/KI turned out to be 9100 M⁻¹ s⁻¹.
Regarding `C=CC[C@@H](NC(=O)N1C(=O)C(CC)(CC)[C@@H]1Oc1ccc(CC(=O)O)cc1)c1ccc2c(c1)OCO2` [(4S)-3,3-diethyl-1-[(R)-α-allyl-(3,4-methylenedioxy)-benzylaminocarbonyl]-4-[(4-carboxymethyl)phenoxy]azetidin-2-one], the kinact/KI amounted to 605000 M⁻¹ s⁻¹.
Same read-out and setting: as for `CCC1(CC)C(=O)N(C(=O)N[C@H](C)c2ccccc2)[C@H]1Oc1ccc(C(=O)CCC(=O)O)cc1` [Table VI: 4-CO(CH2)2COOH; Me; H], the figure is 37100 M⁻¹ s⁻¹; as for `CCC1(CC)C(=O)N(C(=O)N[C@H](c2ccccc2)C(C)C)[C@H]1Oc1ccc(C(=O)O)cc1` [Table VI: 4-COOH; iPr(S); H], 4740 M⁻¹ s⁻¹.
As for `C=CC[C@@H](NC(=O)N1C(=O)C(CC)(CC)[C@@H]1Oc1ccc(CC(=O)O)cc1)c1ccc(C)cc1` [Table VI: 4-CH2 COOH; allyl; 4-Me, (4S)-3,3-diethyl-1-[(R)-α-allyl-(4-methyl)benzyl-aminocarbonyl]-4-[(4-carboxymethyl)phenoxy]azetidin-2-one], the kinact/KI is 664000 M⁻¹ s⁻¹.

Still in this assay, the particulars now being: pH 7.5, read-out: kobs/I, second order rate constant of inactivation of the enzyme.
For the molecule `CCO[C@@H]1[C@@H](CC)C(=O)N1C(C)=O` (relative stereo) [Table I: H; C2 H5 (trans); OC2 H5; COCH3], the kinact/KI was found to be 1670 M⁻¹ s⁻¹.
On the same count and under the same terms, for `CCC1C(=O)N(C(=O)CCC(=O)O)C1OC(C)=O` (centres unmarked) the value was 2250 M⁻¹ s⁻¹.
Still for that read-out and setting: as for `CCOC(=O)[C@@H]1[C@@H](CC)C(=O)N1S(=O)(=O)c1ccc([N+](=O)[O-])cc1` (relative stereo) [4-Carboethoxy-3-ethyl-1-(p-nitrobenzenesulfonyl)-azetidin-2-one], the figure is 39300 M⁻¹ s⁻¹; as for `CCC1C(=O)N(C(C)=O)C1OC(C)=O` (centres unmarked) [Table I: H; C2 H5; OCOCH3; COCH3], 15100 M⁻¹ s⁻¹.
